Measurements from publication PMC3131604, “The Inhibitory Effect of Non-Steroidal Anti-Inflammatory Drugs (NSAIDs) on the Monophenolase and Diphenolase Activities of Mushroom Tyrosinase” (International Journal of Molecular Sciences, 2011).
Read-outs that look alike come from different tables or passages of the source.

Experiments:
[1] = target: T1, mushroom tyrosinase (Agaricus bisporus, UniProt C7FF04); experiment: diphenolase activity assay of mushroom tyrosinase (L-DOPA as substrate); format: biochemical; details: for KIS, diphenolase: Lineweaver-Burk / secondary plots; for Inhibition type, diphenolase activity: Lineweaver-Burk plots; for activity at 50 µM: at 0.05 mM; for activity at 50 µM / activity at 100 µM / activity at 200 µM / activity at 500 µM / activity at 1000 µM: read-out: diphenolase activity in presence of inhibitor; for activity at 100 µM: at 0.1 mM; for activity at 500 µM: at 0.5 mM; for activity at 1000 µM: at 1.0 mM
Protocol: The diphenolase activity assay was performed as previously described. First, 300 μL of 2.5 mM 3,4-dihydroxyphenylalanine (L-DOPA) solution, 50 μL of DMSO with or without a sample chemical, and 1.1 mL of 0.1 M phosphate buffer (pH 6.8) were mixed. The mixture was preincubated at 25 °C for 10 min before 50 μL of 1000 units/mL mushroom tyrosinase in aqueous solution was added, and the reaction was monitored at 475 nm. A control reaction was conducted in DMSO alone. The percentage of activity of tyrosinase was calculated as follows: 100 − [(A − B)/A × 100], where A represents the difference in the absorbance of the control sample between an incubation time of 0.5 and 1.0 min, and B represents the difference in the absorbance of the test sample over the same incubation period.
(§1) The inhibition type of NSAIDs on the monophenolase and diphenolase activity was determined by the Lineweaver-Burk plots and the inhibition constants were determined from secondary plots of the apparent Km/Vmax versus the concentration of the inhibitor.

[2] = system: B16F1 melanoma cells; details: cited from earlier work
[3] = target: T1, mushroom tyrosinase; experiment: monophenolase activity assay of mushroom tyrosinase (L-tyrosine as substrate); format: biochemical; details: for effect on lag time of monophenolase activity: 0.25-1.0 mM inhibitor; for Inhibition type, monophenolase activity: Lineweaver-Burk plots; for activity at 250 µM: at 0.25 mM; for activity at 250 µM / activity at 500 µM / activity at 750 µM / activity at 1000 µM: read-out: monophenolase activity (steady-state rate) in presence of inhibitor; for activity at 500 µM: at 0.5 mM; for activity at 750 µM: at 0.75 mM; for activity at 1000 µM: at 1.0 mM; for KIS (inhibitor binding with the enzyme-substrate complex), monophenolase: secondary plot of Lineweaver-Burk slopes
Protocol: The monophenolase activity assay was performed with modification as reported by Chen et al.. In this assay, L-tyrosine was used as substrate in the monophenolase activity assay. First, 300 μL of 2.5 mM L-tyrosine, 25 μL of DMSO with or without a sample chemical, and 300 μL of 0.1 M phosphate buffer (pH 6.8) were mixed. The mixture was preincubated at 37 °C for 10 min before 125 μL of 1000 units/mL mushroom tyrosinase in aqueous solution added, and the reaction was performed at 37 °C. Enzyme activity was monitored at 475 nm by a UV spectrophotometer (Shimadzu, UV-1700). The lag time was determined by extrapolation of the linear portion of the dopachrome accumulation curve to the abscissa axis.
as §1

T1 sequence (C7FF04 1-392): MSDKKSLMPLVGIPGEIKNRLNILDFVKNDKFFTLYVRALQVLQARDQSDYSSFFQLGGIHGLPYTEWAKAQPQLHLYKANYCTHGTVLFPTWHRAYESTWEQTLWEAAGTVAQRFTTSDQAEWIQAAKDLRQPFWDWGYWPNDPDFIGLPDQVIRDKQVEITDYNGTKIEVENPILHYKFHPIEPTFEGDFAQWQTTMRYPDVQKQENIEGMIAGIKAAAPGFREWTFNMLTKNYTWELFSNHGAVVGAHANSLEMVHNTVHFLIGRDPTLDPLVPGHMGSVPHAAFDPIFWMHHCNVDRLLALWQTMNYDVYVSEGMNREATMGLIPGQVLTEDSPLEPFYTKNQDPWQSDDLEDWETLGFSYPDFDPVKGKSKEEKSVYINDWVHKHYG
T1 sequence (G1K3P4 1-150 partner): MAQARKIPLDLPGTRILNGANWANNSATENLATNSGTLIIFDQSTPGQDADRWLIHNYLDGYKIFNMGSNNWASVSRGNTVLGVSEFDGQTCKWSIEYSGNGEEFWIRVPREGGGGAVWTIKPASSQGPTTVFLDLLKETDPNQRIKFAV

Row | Compound | inhibition of diphenolase activity (in words) ([1]; L-DOPA substrate) | effect on melanogenesis [2] | KIS, diphenolase [1] | Inhibition type, diphenolase activity [1] | activity at 50 µM [1] | activity at 100 µM [1] | activity at 200 µM ([1]; at 0.2 mM) | activity at 500 µM [1] | activity at 1000 µM [1] | effect on lag time of monophenolase activity [3] | Inhibition type, monophenolase activity [3] | activity at 250 µM [3] | activity at 500 µM [3] | activity at 750 µM [3] | activity at 1000 µM [3] | KIS (inhibitor binding with the enzyme-substrate complex), monophenolase [3] | further results
1 | CC(=O)Oc1ccccc1C(=O)O [Acetylsalicylic acid, acetylsalicylic acid] | did not inhibit |  |  |  |  |  |  |  |  |  |  |  |  |  |  |  | inhibition at 4000 µM ([1]; at 4 mM): -6%; effect on melanogenesis ([2]; B16F1 melanoma cells ref 23): inhibits melanogenesis; effect on tyrosinase protein expression ([2]; B16F1 melanoma cells ref 23): down-regulates
2 | O=C(O)Cc1ccccc1Nc1c(Cl)cccc1Cl [Diclofenac, diclofenac] |  | inhibit melanogenesis |  |  |  |  |  |  |  |  |  |  |  |  |  |  | inhibition at 4000 µM ([3]; at 4 mM): 25%
3 | O=C(O)c1cc(-c2ccc(F)cc2F)ccc1O [Diflunisal, diflunisal] |  |  | 0.19 mM | Non-competitive | ~77% | ~63% | ~49% | ~32% | ~20% | extended | Non-competitive | ~45% | ~34% | ~27% | ~20% | 0.11 mM | 
4 | CC(C)Cc1ccc(C(C)C(=O)O)cc1 (stereo not shown) [Ibuprofen, ibuprofen] | did not inhibit |  |  |  |  |  |  |  |  |  |  |  |  |  |  |  | inhibition at 1000 µM ([1]; at 1 mM): 8%
5 | COc1ccc2c(c1)c(CC(=O)O)c(C)n2C(=O)c1ccc(Cl)cc1 [Indomethacin, indomethacin] |  |  | 2.42 mM | Non-competitive | ~89% | ~82% | ~70% | ~50% | ~32% | did not change | Non-competitive | ~84% | ~72% | ~66% | ~60% | 0.75 mM | IC50 of monophenolase activity relative to diphenolase activity ([3]; ratio of IC50 values): about three times larger
6 | Cc1cccc(Nc2ccccc2C(=O)O)c1C [Mefenamic acid, mefenamic acid] |  | inhibit melanogenesis |  |  |  |  |  |  |  |  |  |  |  |  |  |  | inhibition of diphenolase activity (in words) ([1]; at 0.2 mM): slightly inhibited; inhibition at 1000 µM ([3]; at 1 mM): 9%
